Among the data in PubChem BioAssay (NCI) are GI50 and TGI values, retold here.

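Cells were grown in 96-well plates and exposed to each compound for 48 hours at five concentrations; endpoints were interpolated linearly between bracketing concentrations, or set to the highest concentration if not reached. GI50 is the concentration that inhibits growth by half. TGI marks complete inhibition of growth.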 A value given as a limit tells only on which side of the number the result lay.

What is called GI50 is the concentration that inhibits growth by half. What is called TGI is the concentration at which net growth stops. A low value points to greater sensitivity of the cells.

Some test systems named below: A549 NSCLC; BT-549 breast; HOP-92 NSCLC; MCF7 breast; OVCAR-3 ovarian; OVCAR-5 ovarian; PC-3 prostate; SNB-19 CNS; SNB-75 CNS; SR leukemia.
Holding throughout (assay): DTP human tumour cell line panel, 48 h

In the case of `Cc1nn(CNc2ccccc2C(F)(F)F)c(=S)n1/N=C/c1ccc(F)cc1`, the GI50 in the experiment on A549 NSCLC is above 100000 nM; with BT-549 breast, above 100000 nM; in the experiment with HOP-92 NSCLC, 34800 nM; with MCF7 breast, 60300 nM; in the experiment on OVCAR-3 ovarian, above 100000 nM; in the experiment on OVCAR-5 ovarian it was 73000 nM. Moreover, the GI50 with PC-3 prostate was 97900 nM; in the experiment on SNB-19 CNS, 94000 nM; with SNB-75 CNS, 29500 nM; in the experiment with SR leukemia, 12300 nM. Also, the TGI with A549 NSCLC, in the experiment on BT-549 breast, with HOP-92 NSCLC, in the experiment with MCF7 breast, in the experiment with OVCAR-3 ovarian and with OVCAR-5 ovarian was above 100000 nM in each case. For the same compound, the TGI is above 100000 nM with PC-3 prostate, above 100000 nM in the experiment with SNB-19 CNS, 91300 nM in the experiment with SNB-75 CNS and 51600 nM in the experiment with SR leukemia.
With `Clc1ccc2ns[s+]c2c1`, the TGI with A549 NSCLC, with BT-549 breast, in the experiment on HOP-92 NSCLC, with MCF7 breast, in the experiment with OVCAR-3 ovarian and in the experiment on OVCAR-5 ovarian was above 100000 nM each time. For the same compound, the TGI in the experiment on PC-3 prostate was above 100000 nM; with SNB-19 CNS, above 100000 nM; in the experiment on SNB-75 CNS, above 100000 nM; in the experiment on SR leukemia, above 31600 nM.
`N=c1ccc2nc3c(cc(N)c4ccccc43)oc-2c1`: the GI50 in the experiment on A549 NSCLC is 295 nM; in the experiment on BT-549 breast, 268 nM; with HOP-92 NSCLC it was 1180 nM; in the experiment with MCF7 breast, 162 nM; in the experiment with OVCAR-3 ovarian, 26.5 nM; with OVCAR-5 ovarian, 348 nM. Besides, the GI50 in the experiment on PC-3 prostate is 217 nM; in the experiment with SNB-19 CNS it was 242 nM; with SNB-75 CNS, 191 nM; with SR leukemia it was 285 nM. The TGI in the experiment with A549 NSCLC came out at 1050 nM; in the experiment on BT-549 breast, 1270 nM; in the experiment with HOP-92 NSCLC, 3600 nM; with MCF7 breast it was 342 nM; in the experiment on OVCAR-3 ovarian it was 83.4 nM; with OVCAR-5 ovarian, 1200 nM. The TGI with PC-3 prostate amounted to 1710 nM; in the experiment on SNB-19 CNS, 795 nM; with SNB-75 CNS it was 654 nM; in the experiment with SR leukemia it was 1290 nM.
As for `COc1ccc([C@@H](O)c2cc(-c3ncnc4cc(N5CCOCC5)ccc34)c(F)cc2Cl)nn1`, the GI50 in the experiment on A549 NSCLC is 2770 nM; in the experiment on BT-549 breast, 1440 nM; in the experiment on HOP-92 NSCLC it was 382 nM; in the experiment on MCF7 breast, 592 nM; with OVCAR-3 ovarian, 1410 nM; in the experiment with OVCAR-5 ovarian, 7200 nM. In addition, the GI50 was 865 nM with PC-3 prostate, 10800 nM in the experiment on SNB-19 CNS, 371 nM with SNB-75 CNS and 7060 nM in the experiment on SR leukemia. Moreover, the TGI is 21000 nM in the experiment on A549 NSCLC; 20300 nM with BT-549 breast; above 100000 nM in the experiment with HOP-92 NSCLC; 15700 nM with MCF7 breast; 20300 nM in the experiment on OVCAR-3 ovarian; above 100000 nM with OVCAR-5 ovarian. Besides, the TGI with PC-3 prostate was 30900 nM; in the experiment on SNB-19 CNS, above 100000 nM; with SNB-75 CNS, 11400 nM; in the experiment on SR leukemia it was 34600 nM.
Consider `Nc1cc2[nH]cnc2c(=O)[nH]1`, for which the TGI was above 300000 nM with A549 NSCLC; above 300000 nM with BT-549 breast; above 300000 nM in the experiment on HOP-92 NSCLC; above 300000 nM in the experiment with MCF7 breast; 92400 nM in the experiment on OVCAR-3 ovarian; above 289000 nM with OVCAR-5 ovarian. Besides, the TGI with PC-3 prostate is above 300000 nM; in the experiment on SNB-19 CNS, above 300000 nM; in the experiment with SNB-75 CNS, above 300000 nM; in the experiment on SR leukemia it was above 94900 nM.
On to `COc1cc2c3c(c1OC)C1(C=CC(=O)C=C1)CC3NCC2` (centres undefined), for which the TGI in the experiment with A549 NSCLC, in the experiment with BT-549 breast, in the experiment with HOP-92 NSCLC, in the experiment on MCF7 breast, in the experiment with OVCAR-3 ovarian and with OVCAR-5 ovarian was above 100000 nM each time. For the same compound, the TGI in the experiment with PC-3 prostate, with SNB-19 CNS, in the experiment with SNB-75 CNS and with SR leukemia was above 100000 nM each time.
On to `Oc1c(CN2CCCC2)cc(CSCc2ccccc2)c2cccnc12`, for which the GI50 in the experiment on A549 NSCLC was 1730 nM; in the experiment on BT-549 breast, 2270 nM; with HOP-92 NSCLC, 4520 nM; with MCF7 breast it was 475 nM; in the experiment with OVCAR-3 ovarian, 440 nM; in the experiment on OVCAR-5 ovarian it was 4510 nM. Also, the GI50 with PC-3 prostate is 1550 nM; with SNB-19 CNS, 1720 nM; with SNB-75 CNS, 1500 nM; in the experiment on SR leukemia, 392 nM. The TGI with A549 NSCLC is 10600 nM; in the experiment with BT-549 breast, 12100 nM; with HOP-92 NSCLC, 17600 nM; with MCF7 breast, 11300 nM; with OVCAR-3 ovarian, 2700 nM; in the experiment on OVCAR-5 ovarian it was 17100 nM. Besides, the TGI was 14000 nM with PC-3 prostate, 13500 nM with SNB-19 CNS, 15900 nM with SNB-75 CNS and 2320 nM in the experiment with SR leukemia.
With `CCC[CH2][Sn]1([CH2]CCC)[O]C(=O)c2ccc(N)cc2[O]1`, the GI50 was 2620 nM in the experiment with A549 NSCLC; 150 nM in the experiment on BT-549 breast; 149 nM in the experiment on HOP-92 NSCLC; 152 nM in the experiment on MCF7 breast; 1240 nM with OVCAR-3 ovarian; 1770 nM in the experiment on OVCAR-5 ovarian. For the same compound, the GI50 in the experiment with PC-3 prostate was 985 nM; in the experiment on SNB-19 CNS, 734 nM; with SNB-75 CNS it was 116 nM; in the experiment with SR leukemia, 549 nM. For the same compound, the TGI is 7400 nM in the experiment on A549 NSCLC; 985 nM in the experiment with BT-549 breast; 988 nM in the experiment with HOP-92 NSCLC; 738 nM with MCF7 breast; 2520 nM in the experiment on OVCAR-3 ovarian; 3300 nM with OVCAR-5 ovarian. In addition, the figures for the TGI in the experiment on PC-3 prostate, with SNB-19 CNS and in the experiment with SNB-75 CNS were 2230 nM, 2170 nM and 1840 nM, respectively.
On to `CC[C@]1(O)C[C@@H]2CN(CCc3c([nH]c4ccccc34)[C@@](C(=O)OC)(c3cc4c(cc3OC)N(C)[C@H]3[C@@](O)(C(N)=O)[C@H](O)[C@]5(CC)[C@@H]6C[C@@H]6CN6CC[C@]43[C@@H]65)C2)C1`, for which the GI50 with A549 NSCLC is 12.8 nM; in the experiment with BT-549 breast, below 3.33 nM; in the experiment with HOP-92 NSCLC, below 3.33 nM; in the experiment on MCF7 breast it was below 3.33 nM; in the experiment with OVCAR-3 ovarian, below 3.33 nM; in the experiment with OVCAR-5 ovarian it was 91.2 nM. Moreover, the GI50 with PC-3 prostate, with SNB-19 CNS, in the experiment with SNB-75 CNS and in the experiment with SR leukemia was below 3.33 nM each time. Moreover, the TGI with A549 NSCLC is above 33300 nM; in the experiment with BT-549 breast it was 708 nM; in the experiment on HOP-92 NSCLC it was 1820 nM; in the experiment with MCF7 breast, above 18200 nM; in the experiment with OVCAR-3 ovarian, 81.8 nM; in the experiment with OVCAR-5 ovarian, above 33300 nM. Moreover, the TGI with PC-3 prostate is above 33300 nM; in the experiment with SNB-19 CNS it was above 33300 nM; with SNB-75 CNS, 20600 nM; with SR leukemia it was 10200 nM.
